# In publication PMC8289286, “In Silico, In Vitro, and In Vivo Evaluation of Precipitation Inhibitors in Supersaturated Lipid-Based Formulations of Venetoclax” (Molecular Pharmaceutics, 2021):
# Read-outs that look alike come from different tables or passages of the source.
# Legend:
# [1] = Venetoclax solubility in FaSSIF and FaSSIF with dissolved PI; format: physicochemical; conditions: FaSSIF without PI, reference of the PI test
# Procedure: Additionally, the solubility of venetoclax was determined in FaSSIF with dissolved PI. […] 250 μL of samples were taken at 3, 6, and 24 h and filtered through a 0.2 μm syringe filter (Whatman Spartan 13/0.2), diluted with acetonitrile (containing 0.5% (v/v) TFA), and analyzed by HPLC as described above.
# [2] = Biorelevant solubility in FaSSIF and FeSSIF; format: physicochemical
# Procedure: FaSSIF and fed state simulated intestinal fluid (FeSSIF) was prepared according to the instructions by biorelevant.com. FeSSIF was used directly, whereas FaSSIF was left at room temperature for 2 h prior to usage. Excess venetoclax was added to 2 mL of biorelevant media and placed in a water bath shaker at 200 shakes/min (GLS400, Grant Instruments, UK) and 37 °C. Samples were taken after 3, 6, and 24 h and centrifuged at 21,380g and 37 °C for 15 min (Mikro 200 R, Andreas Hettich GmbH & Co. KG, Germany). The supernatant was transferred to a new sample tube and centrifuged again under identical conditions. Subsequently, the supernatant was diluted with the mobile phase before analysis by HPLC.
# The samples were analyzed using an Agilent 1200 series HPLC system (Agilent Technology Inc., US) that comprised a binary pump, degasser, autosampler, and variable wavelength detector. Data were analyzed using the software EZChrom Elite version 3.2. Venetoclax was separated from the sample matrix with a Zorbax Eclipse Plus-C18 column (5 μm, 4.6 mm × 150 mm) including a Zorbax Eclipse Plus-C18 guard column (5 μm, 4.6 mm × 12.5 mm) at 40 °C. The mobile phase consisted of (a) acetonitrile with 0.5% trifluoroacetic acid (TFA) and (b) water with 0.5% TFA at a ratio of 53:47 (a/b v/v) and was used at a flow rate of 1 mL/min. The injection volume was 20 μL and the detection wavelength was set to 316 nm. The limit of detection was 20 ng/mL and the limit of quantification (LOQ) was 65 ng/mL determined using the standard error of the y-intercept according to the International Council for Harmonization (ICH) Q2 guidelines.[34]
# [3] = parameters: method as in PMID 28993217; conditions: cited from earlier work
# [4] = cited from earlier work
# [5] = cited from earlier work; remark: listed apart in the source
smiles,measurement,setting,value
CC1(C)CCC(CN2CCN(c3ccc(C(=O)NS(=O)(=O)c4ccc(NCC5CCOCC5)c([N+](=O)[O-])c4)c(Oc4cnc5[nH]ccc5c4)c3)CC2)=C(c2ccc(Cl)cc2)C1 [venetoclax],solubility,[1],5.2 ± 0.4 µg/mL
same,share of a 100 mg dose dissolved in 250 mL gastrointestinal fluid at FaSSIF solubility,"[2]; FaSSIF, 100 mg dose in 250 mL",1.7%
same,solubility,"[2]; FaSSIF, 37 °C, n = 3",6.8 ± 1.8 µg/mL
same,solubility increase in the fed state (FeSSIF) over FaSSIF,"[2]; FeSSIF vs FaSSIF, 37 °C",3.9 fold
same,share of a 100 mg dose dissolved at FeSSIF solubility,"[2]; FeSSIF, 100 mg dose",6.7%
same,amorphous solubility in FaSSIF,[3]; pH 5.3,20.7 ± 0.5 µg/mL
same,amorphous solubility in FaSSIF,[3]; pH 6.9,33.7 ± 13.5 µg/mL
same,amorphous solubility in FeSSIF,"[3]; FeSSIF, pH 5.3",26.4 ± 0.2 µg/mL
same,amorphous solubility in FeSSIF,"[3]; FeSSIF, pH 6.9",54.6 ± 2.0 µg/mL
same,reported amorphous solubility in FeSSIF,[3]; FeSSIF,26.4 to 54.6 µg/mL
same,BCS classification,[4]; based on low aqueous solubility and permeability,BCS class IV
same,log P,[4],5.5
same,previously reported venetoclax bioavailability in fasted pigs,[5],17.3 ± 5.5%
